Patent US20230285516A1 (priority 2020, published 2023)
Entries after “also recorded” stand apart in the source; their conditions may differ.

Tests used:
mice with CIA = test: Histopathological analysis of hind legs, collagen-induced arthritis (CIA) models; assay type: in vivo; settings: H&E and PAS, intramuscular weekly for 6 weeks
Procedure: (§1) Early Arthritis Model. Fifty mice with the same characteristics were immunized at the base of the tail with 100 μg of chicken type II collagen emulsified in complete Freund's adjuvant. The boost was applied on day 21 at the base of the tail with 100 μg of type II collagen emulsified with Freund's incomplete adjuvant. On the same boosting day, the treatments (a-d) were applied every week for six weeks. Three animals were euthanized in the sixth week and three in the thirteenth week. The spleen, lymph nodes, joint tissue, liver, lungs, kidneys and heart were obtained in order to assess the inflammatory infiltrate, the predominant cell populations and the expression of pro- and anti-inflammatory cytokines.
(§2) Established Arthritis Model. Arthritis was induced as in the previous model in 50 mice and the treatments were applied intramuscularly, after 2 weeks of the boost, every week for 6 weeks. Three animals were euthanized in the eighth week and three in the fifteenth week. The spleen, lymph nodes, joint tissue, liver, lungs, kidneys and heart were obtained in order to assess the inflammatory infiltrate, the predominant cell populations and the expression of pro- and anti-inflammatory cytokines.
Histological evaluation. The inflammatory infiltrate and tissue architecture were evaluated by H&E and Masson's trichrome staining and the content of proteoglycans, with the PAS technique. […]

Th17 (CD4+/IL-17+) cells = test: FACS of spleen Th17 cells in CIA models; assay type: in vivo, mice; settings: CIA model, fold
Procedure: as §1
as §2, with “cytokines. […]” for “cytokines.”
(§3) FIG. 10. […] The intracellular production of IL-17A, IL-4, IFN-γ and Foxp3 by CD4+ T cells was detected by flow cytometry. The results are representative of 6 mice analyzed in each group. […]

Th2 (CD4+/IL-4+) cells = test: FACS of spleen Th2 cells in CIA models; assay type: in vivo, mice; settings: early arthritis model, first sacrifice only
Procedure: as §1
as §2, with “cytokines. […]” for “cytokines.”
as §3

TNF-α [1] = test: TNF-α tissue expression in cartilage and synovium co-cultures (histochemistry); assay type: cell-based, human; settings: RA or OA co-cultures, 1% type I polymerized collagen, 7 days
Procedure: (§4) Cartilage and synovium co-cultures were performed from 9 patients with RA and 8 patients with OA who underwent hip or knee replacement (Table 1). Joint tissue was cultured with (a) RPMI (control), (b) 1% type I polymerized collagen, for 7 days. The supernatants and tissues of days 1 and 7 were […] collected. In the culture supernatants the concentration of IL-1β, IL-8, IL-10, IL-12, TNF-α and IFN-γ was quantified by ELISA and the results were normalized with total protein concentration. The expression of IL-1β and TNF-α was evaluated using histochemistry.
FIG. 2. Effect of type I polymerized collagen on TNF-α expression. (A) Cells immunoreactive to TNF-α in the synovial tissue of the co-cultures. (B) Immunoreactive TNF-α+ cells in cartilage from co-cultures. Rheumatoid arthritis (RA): left panel. Osteoarthritis (OA): right panel. Basal: tissue in basal conditions. […] Each culture was performed in triplicate for each condition, of which at least two sections of each of the tissues were analyzed. The results are expressed as the mean±standard error (SEM) of the percentage of immunoreactive cells in 9 co-cultures of patients with RA and 8 with OA. *p≤0.002.

IL-10 = IL-10 in co-culture supernatants (ELISA); assay type: cell-based, human; settings: RA or OA co-cultures, day 7 vs. day 1 of culture
Procedure: as §4
FIG. 6. Effect of type I polymerized collagen on IL-10 expression in supernatants of cartilage and synovial tissue co-cultures from patients with rheumatoid arthritis (RA) or osteoarthritis (OA). The data represent the mean±SD of 9 co-cultures of cartilage and synovium from patients with RA and of 8 co-cultures of patients with OA. Each culture was performed in triplicate for each condition. The results were normalized with the total protein concentration of the supernatant, determined by the Folin-Lowry micromethod. AR: left panel. OA: panel on the right. Basal: tissue in basal conditions.

TNF-α [2] = test: TNF-α gene expression in co-cultured tissues (RT-PCR); assay type: cell-based, human; settings: vs control
Excerpt: FIG. 7. Effect of type I polymerized collagen on the gene expression of pro- and anti-inflammatory cytokines and factors in the tissues of cartilage and synovial tissue co-cultures of patients with rheumatoid arthritis (RA). (A) Quantification of TNF-α, IL-6 and IL-10 gene expression and (B) Quantification of IL-23 and Foxp3 gene expression by RT-PCR in synovial membrane tissues and cartilage co-cultured for 7 days. The bars show the mean±SD of the transcript levels of the samples normalized through the expression of the housekeeping gene GADPH determined by 2ΔΔCt. The data represent the mean±SD of 9 cartilage and synovial co-cultures from RA patients. Each culture was performed in triplicate for each condition. Basal: tissue in basal conditions.
FIG. 8. Effect of type I polymerized collagen on the gene expression of pro- and anti-inflammatory cytokines and factors in the tissues of cartilage and synovial co-cultures of patients with Osteoarthritis (OA). (A) Quantification of IL-1β, INF-α, IL-6 and IL-10 gene expression, (B) IL-23 and Foxp3 by RT-PCR in co-cultured cartilage and synovial membrane tissues for 7 days. The bars show the mean±SD of the transcript levels of the samples normalized through the expression of the housekeeping gene GADPH determined by 2ΔΔCt. The data represent the mean±SD of 8 co-cultures from patients with OA. […]

collagen-polyvinylpyrrolidone [type I polymerized collagen]
histopathology of joint tissue (inflammation, tissue architecture) (mice with CIA): decreased the degree of inflammation and preserved the joint structure; also recorded: maintained a tissue architecture similar to normal
negative regulation of the subpopulation of Th17 cells (Th17 (CD4+/IL-17+) cells): 1.5-2.0 ×
number of circulating Th2 cells (Th2 (CD4+/IL-4+) cells): modified
tissue expression of TNF-α vs. controls in synovial tissue (TNF-α [1]): decreased
increase of IL-10 concentration in the supernatants (IL-10): ≥ 10 times
gene expression of TNF-α (TNF-α [2]; co-cultures from patients with OA): negative regulation
transcription of TNF-α gene (TNF-α [2]; co-cultures from patients with RA): negatively regulated
